According to US4432982A, “Polycyclic compounds substituted on the A-ring, pharmaceutical compositions containing them, and methods of treating psoriasis with them” (Richter Gedeon Vegyeszeti Gyar Rt., priority 1981, dated 1984):
Where a name gives a salt, the structure may show the parent alone.

Test system: phosphodiesterase isolated from cattle heart
Experiment: Phosphodiesterase inhibition, radioisotope method with 3H-c-AMP, enzyme isolated from cattle heart
Format: biochemical
Details: control without inhibitor = 100%, 20 minutes incubation
Protocol: The model experiments were performed by means of phosphodiesterase isolated from animal tissues (rat brain, cattle brain, cattle heart). The enzyme was isolated by the technique of J. Schroder and H. V. Richenberg [Biochem. Biophys. […] The measurement was first carried out without the inhibiting substance and then in the presence of one of the compounds of the general formula (I) as an inhibiting agent, after an incubation period of 20 minutes [N.S. Arch. […] A solution of papaverine used as reference material was added to the enzyme preparate in an analogous manner.
The activity of the solutions containing the compounds of formula (I) and papaverine was expressed in percents of the control (enzyme solution without any inhibitor substance, the activity thereof was taken 100%).

[1] = 1 × 10^-5 mole/lit. test compound, 10 µM
[2] = 5 × 10^-5 mole/lit. test compound, 50 µM
[3] = 5 × 10^-6 mole/lit. test compound, 5 µM

| effect of the test compound on enzyme activity in % of the control [1] [%] | effect of the test compound on enzyme activity in % of the control [2] [%] | effect of the test compound on enzyme activity in % of the control [3] [%] | Structure (SMILES) |
| --- | --- | --- | --- |
| 21.8 | 21.8 | 31.9 | CC[C@@]12C=C(COC(=O)c3cc(OC)c(OC)c(OC)c3)n3c4c(c5ccc(Br)cc53)CCN(CCC1)[C@H]42 [(-)-11-Bromo-apovincaminol-3',4',5'-trimethoxy-benzoate hydrochloride] |
| 61.8 | – | 67.8 | CC[C@@]12C=C(COC(=O)c3cc(OC)c(OC)c(OC)c3)n3c4c(c5cc(Br)ccc53)CCN(CCC1)[C@H]42 [10-Bromo-apovincaminol-3',4',5'-trimethoxy-benzoate] |
| 40.3 | 21.3 | 59.1 | CC[C@@]12C=C(COC(=O)c3cc(OC)c(OC)c(OC)c3)n3c4c(c5cc(OC)ccc53)CCN(CCC1)[C@H]42 [10-Methoxy-apovincaminol-3',4',5'-trimethoxybenzoate] |

| Structure (SMILES) | effect of the test compound on enzyme activity in % of the control [1] [%] | effect of the test compound on enzyme activity in % of the control [2] [%] | effect of the test compound on enzyme activity in % of the control [3] [%] |
| --- | --- | --- | --- |
| COc1ccc(Cc2nccc3cc(OC)c(OC)cc23)cc1OC [Papaverine HCl, reference compound] | 82.7 | 43.7 | 91.3 |
